Series [1] is described as follows: Thermodynamic solubility (solid shaken in solvent at 37° C., filtrate by LC/UV). The class given is physicochemical. Conditions: thermodynamic from solid. Here is the method:
Briefly, 300 ul of solvent (ethanol, 0.1 M HCl or distilled H2O) were added to 14-16 mg of the solid compound (5 parallel measurements per sample, per solvent, mean concentrations 93-107 mM). The mixtures were shaken at 37° C. for 24 and 72 hours. Concentrations of the filtrates were determined by liquid chromatography with UV detector (LC/UV) with 3-point calibration.
Crystal form was checked by X-ray powder diffraction (XRPD) after recovering the slurry at 24 and 72 hours. […] The exact cause of this observed phenomenon is not known.

Assay in series [2]: as above
The format is physicochemical. Conditions: water and 1.0 M HCl, 24 vs 72 hours.

Series [3] in a line: Oral vs vaginal pharmacokinetics in beagles (25 mg). The class given is in vivo. Here is the method: FIG. 1 illustrates a comparison of the Cmax (peak serum concentration) and area under the curve (AUC) following oral and vaginal administration of CDB-4124 or CDB-4453 at a 25 mg dose in beagles.
Beagles were administered 25 mg of CDB-4124 or CDB-4453 (the monodemethylated metabolite of CDB-4124) formulated as either a micronized powder or a vaginal suppository. […] Moreover, systemic exposure of the drug is much lower when administered locally (compare AUC for CDB-4124 and CDB-4453 when administered vaginally vs. orally).

The nature of series [4]: Pharmacokinetic studies on clinical trial subjects after oral CDB-4124. The class given is in vivo, human. The note with it: oral CDB-4124, 12.5 mg vs 50 mg. Here is the method: The maximum concentrations of CDB-4124 and its mono-demethylated metabolite (CDB-4453) for the 12.5 mg dose were 25% of the 50 mg dose. All liver toxicities resolved in those women that returned for safety follow-ups, including those subjects that developed liver-associated serious adverse effects (SAEs).
Pharmacokinetic studies performed on participating subjects detected a high Cmax and a Tmax at 1-2 hours following administration. […] Metabolism of CDB-4124 by the liver provides the opportunity for liver damage and greatly reduces the concentration of the antiprogestin before it reaches the systemic circulation. Thus, alternative routes of administration of antiprogestins that avoid first pass metabolism such as, without limitation, intravenous, intramuscular, and sublingual, should allow antiprogestins to be absorbed directly into the systemic circulation and thereby provide a method for treating progestone-dependent conditions while avoiding liver toxicity. Administration routes which avoid first pass metabolism may also require less drug per dose to achieve the same therapeutic benefit relative to oral administration.

[5] abbreviates: organic solvent or mixture, ethanol, read-out: Thermodynamic solubility, Ethanol, Mean.
[6] abbreviates: simulated gastric fluid, 0.1M HCl, read-out: Thermodynamic solubility, 0.1M HCl, Mean.
[7] abbreviates: distilled water, read-out: Thermodynamic solubility, Distilled water, Mean.
Where [8] appears, read: distilled water, read-out: Thermodynamic solubility, distilled water, Mean.

Molecules are shown by their SMILES. In brackets after ≈: the same amount, converted by molar mass. Where two headings read alike, the source gives them in different places. Where only a bound is given, the exact number is not on record here.

As a reminder, the solubility (thermodynamic) is the concentration in solution at equilibrium with solid. With `COCC(=O)[C@@]1(OC(C)=O)CC[C@H]2[C@@H]3CCC4=CC(=O)CCC4=C3[C@@H](c3ccc(C(C)=O)cc3)C[C@@]21C` [CDB-4239, 21-methoxy-17α-acetoxy-11β-(4-acetylphenyl)-19-norpregna-4,9-diene-3,20-dione], the solubility (thermodynamic) at 24 h in series [1] (setting [5]) was above 98200 µM; in series [1] (setting [6]), 140 µM (≈ 70.8 µg/mL); in series [1] (setting [7]), 141 µM (≈ 70.9 µg/mL). Also, the figures for the thermodynamic solubility at 72 h in series [1] (setting [5]), in series [1] (setting [6]) and in series [1] (setting [8]) were above 100000 µM, 110 µM (≈ 55.6 µg/mL) and 54.8 µM (≈ 27.7 µg/mL), respectively. Besides, the “Tendency of water and HCl solubilities between 24 and 72 hours” value in series [2] was “decreasing tendency”.

As to `CC(=O)OCC(=O)[C@@]1(OC(C)=O)CC[C@H]2[C@@H]3CCC4=CC(=O)CCC4=C3[C@@H](c3ccc(C(C)=O)cc3)C[C@@]21C` [CDB-4241, 21-acetoxy-17α-acetoxy-11β-(4-acetylphenyl)-19-norpregna-4,9-diene-3,20-dione], the solubility (thermodynamic) at 24 h was 26300 µM (≈ 14000 µg/mL) in series [1] (setting [5]), 3.21 µM (≈ 1.71 µg/mL) in series [1] (setting [6]) and 3.08 µM (≈ 1.64 µg/mL) in series [1] (setting [7]). The thermodynamic solubility at 72 h was 21600 µM (≈ 11500 µg/mL) in series [1] (setting [5]), 3.9 µM (≈ 2.08 µg/mL) in series [1] (setting [6]) and 3.05 µM (≈ 1.62 µg/mL) in series [1] (setting [8]).

Consider `CNc1ccc([C@H]2C[C@@]3(C)[C@@H](CC[C@]3(OC(C)=O)C(=O)COC)[C@@H]3CCC4=CC(=O)CCC4=C32)cc1` [CDB-4453], for which, in series [3] (oral micronized powder), the “Metabolism after peak plasma concentration” value is reported as “rapidly metabolized”. In addition, in series [3] (vaginal suppository), the Metabolism result is “metabolized slowly” and the “Peak plasma concentrations (Cmax)” value was “relatively low”. Moreover, the “Systemic exposure (AUC), local vs oral” value in series [3] (vaginal vs oral) is “much lower”. In series [4], the “Maximum concentration for the 12.5 mg dose relative to the 50 mg dose” value came out at 25%.

On to `CC(=O)O[C@]1(C(C)=O)CC[C@H]2[C@@H]3CCC4=CC(=O)CCC4=C3[C@@H](c3ccc(C(C)=O)cc3)C[C@@]21C` [REP-4510, 17α-acetoxy-11β-(4-acetylphenyl)-19-norpregna-4,9-dien-3,20-dione], for which the thermodynamic solubility at 24 h in series [1] (setting [5]) is 3300 µM (≈ 1570 µg/mL); in series [1] (setting [6]) it was 0.5 µM (≈ 0.237 µg/mL); in series [1] (setting [7]), 0.52 µM (≈ 0.247 µg/mL). Also, the solubility (thermodynamic) at 72 h in series [1] (setting [5]) is 2900 µM (≈ 1380 µg/mL); in series [1] (setting [6]), 0.45 µM (≈ 0.214 µg/mL); in series [1] (setting [8]) it was 0.44 µM (≈ 0.209 µg/mL).
